Measured values as given in US20240317746A1, “CRYSTALLINE FORMS OF AN AZETIDINE PARP1 INHIBITOR” (XinThera, Inc., priority 2023, published 2024).
Several values for one entry are separate records, joined by “and”; a condition that tells them apart may be missing. Equal entries are not always repeated. Entries after “also recorded” stand apart in the source; their conditions may differ. Structures can show the parent of a compound that is named as a salt. Each block holds one compound with its values, some of them ahead of it.

Assays:
Assay type in all cases: physicochemical
[1] = DVS test (dynamic vapor sorption, hygroscopicity); conditions: for hygroscopicity (in words): DVS
Procedure: All the three target forms remained no change after DVS test.
Dynamic Vapor Sorption (DVS) was used to study hygroscopicity on Model Q5000 SA (TA Instruments, New Castle, DE). A sample (1-10 mg) was placed in an aluminum pan and loaded on the sample side of the twin pan balance. The water sorption and desorption were studied as a function of relative humidity (RH) at 25° C. in 10% RH increments from 0% RH to 90% RH and then back to 0%. […] Data analysis was performed using Universal Analysis 2000 Version 4.7A (TA Instruments, New Castle, DE).

[2] = Solid-state stability at 60° C. (capped) and 40° C./75% RH (open); conditions: for XRPD - 7 d / physical and chemical stability: 7 days; for physical and chemical stability: 60° C. (capped) and 40° C./75% RH (open); for Initial Purity: before storage, HPLC
Procedure: (capped) and 40° C./75% RH (open) for 7 days. Duplicate samples were prepared at each condition. The stability sample was dissolved in diluent to prepare solution at ˜1 mg/mL for HPLC purity analysis. Solid samples were analyzed by XRPD to check the crystal form. […] (capped) and 40° C./75% RH (open) for at least 7 days.

[3] = Solubility in bio-relevant media (SGF, FaSSIF, FeSSIF) and water; conditions: for XRPD 0.5 h / XRPD 2 h / XRPD 24 h: filter cake; for solubility compared to Freebase Form I (in words): water, FaSSIF and FeSSIF, 37° C.
Procedure: At 0.5, 2 and 24 hours, about 0.6 mL of each suspension was filtered, the filtrate was analyzed by HPLC and pH meter, and the filter cake was analyzed by XRPD. The samples were prepared in duplicate (n=2) per condition. Average value (n=2) was presented.
HPLC analysis was performed with an Agilent HPLC 1260 series instrument.

[4] = FaSSIF, initial pH 6.45, 37° C., average n=2
[5] = FaSSIF, initial pH 6.45, filtrate
[6] = FeSSIF, initial pH 4.99, 37° C., average n=2
[7] = FeSSIF, initial pH 4.99, filtrate
[8] = Water, initial pH 5.41, 37° C., average n=2
[9] = Water, initial pH 5.41, filtrate
[10] = in FaSSIF and FeSSIF, XRPD of filter cake

hygroscopicity (in words) [1]: hygroscopic | water uptake ([1]; from 0 to 90% RH at 25° C.): about 6%
Compound: C[C@@H]1[C@@H](Oc2ccc(C(=O)NC3CC3)nc2)CN1Cc1cnc2cc(Cl)c(=O)[nH]c2c1 [Sulfate Salt Form III, 5-(((2R,3S)-1-((7-chloro-6-oxo-5,6-dihydro-1,5-naphthyridin-3-yl)methyl)-2-methylazetidin-3-yl)oxy)-N-cyclopropylpicolinamide]

hygroscopicity (in words) [1]: slightly hygroscopic | hygroscopicity (in words) ([1]; listed as Tartrate Salt Form I): slightly hygroscopic | water uptake ([1]; at 80% RH): < 1% and 0.8% | water uptake ([1]; at 90% RH): 1.4% | water uptake ([1]; from 0 to 90% RH at 25° C., listed as Tartrate Salt Form I): about 1.1% | XRPD - 7 d ([2]; 40° C./75% RH (open)): Unchanged | physical and chemical stability [2]: physically and chemically stable | XRPD - 7 d ([2]; 60° C. (capped)): Unchanged | Initial Purity [2]: 99.64 area % | XRPD 0.5 h ([3]; FaSSIF): Amorphous | XRPD 2 h ([3]; FaSSIF): FB Form I | XRPD 24 h ([3]; FaSSIF): FB Form I | Solubility 0.5 h [3, 4]: 2.088 mg/mL | Solubility 2 h [3, 4]: 1.320 mg/mL | Solubility 24 h [3, 4]: 0.980 mg/mL | pH 0.5 h [3, 5]: 3.98 | pH 2 h [3, 5]: 3.81 | pH 24 h [3, 5]: 3.69 | XRPD 0.5 h ([3]; FeSSIF): Amorphous | XRPD 2 h ([3]; FeSSIF): FB Form I | XRPD 24 h ([3]; FeSSIF): FB Form I | Solubility 0.5 h [3, 6]: 0.496 mg/mL | Solubility 2 h [3, 6]: 0.207 mg/mL | Solubility 24 h [3, 6]: 0.144 mg/mL | pH 0.5 h [3, 7]: 4.71 | pH 2 h [3, 7]: 4.71 | pH 24 h [3, 7]: 4.70 | XRPD 0.5 h, 2 h, 24 h ([3]; SGF): Clear | Solubility 0.5 h, 2 h, 24 h ([3]; SGF, initial pH 1.23, 37° C.): >5 mg/mL | pH 0.5 h ([3]; SGF, initial pH 1.23, filtrate): 1.32 | pH 2 h ([3]; SGF, initial pH 1.23, filtrate): 1.17 | pH 24 h ([3]; SGF, initial pH 1.23, filtrate): 1.25 | XRPD 0.5 h ([3]; Water): Unchanged | XRPD 2 h ([3]; Water): Unchanged | Solubility 0.5 h [3, 8]: 4.288 mg/mL | Solubility 2 h [3, 8]: 4.422 mg/mL | Solubility 24 h [3, 8]: 0.293 mg/mL | pH 0.5 h [3, 9]: 3.63 | pH 2 h [3, 9]: 3.58 | pH 24 h [3, 9]: 3.73 | form change of the solid [3, 10]: dissociated into Freebase Form I | form change of the solid ([3]; in water at 24 h): converted into a new pattern | solubility compared to Freebase Form I (in words) [3]: improved solubility
Compound: C[C@@H]1[C@@H](Oc2ccc(C(=O)NC3CC3)nc2)CN1Cc1cnc2cc(Cl)c(=O)[nH]c2c1 [Tartrate Form I, 5-(((2R,3S)-1-((7-chloro-6-oxo-5,6-dihydro-1,5-naphthyridin-3-yl)methyl)-2-methylazetidin-3-yl)oxy)-N-cyclopropylpicolinamide]
conversion rate to the freebase (in words) ([3]; in FaSSIF and FeSSIF, compared with Maleate Form IV): slower conversion rate; also recorded: slower form conversion

More lines, now with the values behind:

Compound: C[C@@H]1[C@@H](Oc2ccc(C(=O)NC3CC3)nc2)CN1Cc1cnc2cc(Cl)c(=O)[nH]c2c1 [Hemiedisylate Salt Form II, 5-(((2R,3S)-1-((7-chloro-6-oxo-5,6-dihydro-1,5-naphthyridin-3-yl)methyl)-2-methylazetidin-3-yl)oxy)-N-cyclopropylpicolinamide]
hygroscopicity (in words) [1]: hygroscopic | water uptake ([1]; from 0 to 90% RH at 25° C.): about 3.6%

Compound: C[C@@H]1[C@@H](Oc2ccc(C(=O)NC3CC3)nc2)CN1Cc1cnc2cc(Cl)c(=O)[nH]c2c1 [L-Malate Salt Form II, 5-(((2R,3S)-1-((7-chloro-6-oxo-5,6-dihydro-1,5-naphthyridin-3-yl)methyl)-2-methylazetidin-3-yl)oxy)-N-cyclopropylpicolinamide]
hygroscopicity (in words) [1]: hygroscopic | water uptake ([1]; from 0 to 90% RH at 25° C.): about 4.6%

Compound: C[C@@H]1[C@@H](Oc2ccc(C(=O)NC3CC3)nc2)CN1Cc1cnc2cc(Cl)c(=O)[nH]c2c1 [L-Tartrate Salt Form II, 5-(((2R,3S)-1-((7-chloro-6-oxo-5,6-dihydro-1,5-naphthyridin-3-yl)methyl)-2-methylazetidin-3-yl)oxy)-N-cyclopropylpicolinamide]
hygroscopicity (in words) [1]: hygroscopic | water uptake ([1]; from 0 to 90% RH at 25° C.): about 10.2%

Compound: C[C@@H]1[C@@H](Oc2ccc(C(=O)NC3CC3)nc2)CN1Cc1cnc2cc(Cl)c(=O)[nH]c2c1 [Maleate Form IV, 5-(((2R,3S)-1-((7-chloro-6-oxo-5,6-dihydro-1,5-naphthyridin-3-yl)methyl)-2-methylazetidin-3-yl)oxy)-N-cyclopropylpicolinamide]
hygroscopicity (in words) [1]: slightly hygroscopic | water uptake ([1]; at 80% RH): < 1% and 0.6% | water uptake ([1]; at 90% RH): 0.9% | XRPD - 7 d ([2]; 40° C./75% RH (open)): Unchanged | physical and chemical stability [2]: physically and chemically stable | XRPD - 7 d ([2]; 60° C. (capped)): Unchanged | Initial Purity [2]: 99.72 area % | XRPD 0.5 h ([3]; FaSSIF): FB Form I | XRPD 2 h ([3]; FaSSIF): FB Form I | XRPD 24 h ([3]; FaSSIF): FB Form I | Solubility 0.5 h [3, 4]: 0.397 mg/mL | Solubility 2 h [3, 4]: 0.410 mg/mL | Solubility 24 h [3, 4]: 0.373 mg/mL | pH 0.5 h [3, 5]: 4.58 | pH 2 h [3, 5]: 4.46 | pH 24 h [3, 5]: 4.43 | solubility at 24 h ([3]; FeSSIF, 37 °C, pH 4.99, fessif, thermodynamic from solid, initial pH 4.99, 37° C., average n=2): 131 µg/mL | XRPD 0.5 h ([3]; FeSSIF): FB Form I | XRPD 2 h ([3]; FeSSIF): FB Form I | XRPD 24 h ([3]; FeSSIF): FB Form I | Solubility 0.5 h [3, 6]: 0.369 mg/mL | Solubility 2 h [3, 6]: 0.159 mg/mL | pH 0.5 h [3, 7]: 4.82 | pH 2 h [3, 7]: 4.82 | pH 24 h [3, 7]: 4.79 | XRPD 0.5 h, 2 h, 24 h ([3]; SGF): Clear | solubility ([3]; SGF, 37 °C, pH 1.23, simulated gastric fluid, thermodynamic from solid, SGF, initial pH 1.23, 37° C., read-out: Solubility 0.5 h, 2 h, 24 h): > 5000 µg/mL | pH 0.5 h ([3]; SGF, initial pH 1.23, filtrate): 1.33 | pH 2 h ([3]; SGF, initial pH 1.23, filtrate): 1.17 | pH 24 h ([3]; SGF, initial pH 1.23, filtrate): 1.22 | XRPD 0.5 h, 2 h, 24 h ([3]; Water): Little solid | Solubility 0.5 h [3, 8]: 4.527 mg/mL | Solubility 2 h [3, 8]: 4.494 mg/mL | Solubility 24 h [3, 8]: 3.797 mg/mL | pH 0.5 h [3, 9]: 3.81 | pH 2 h [3, 9]: 3.75 | pH 24 h [3, 9]: 3.90 | form change of the solid [3, 10]: dissociated into Freebase Form I | solubility compared to Freebase Form I (in words) [3]: improved solubility
